From PubChem BioAssay AID1963970 (Molecular Pharmacology Branch, DTP, NCI, 2024)

Tested on: 931267-113-T-J1-PDC multicell spheroid viability
Experiment: Anticancer human tumor 931267-113-T-J1-PDC patient-derived colon adenocarcinoma cell line growth inhibition [PI3K]
Conditions: for IC50: curve of first compound; for viability, T/C: stronger effect = lower value
Summary of the method: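 Three cell types, namely tumor cells, endothelial cells and mesenchymal stem cells, formed each spheroid. Combinations with four PI3K inhibitors were screened at clinically achievable concentrations decreasing by half-log, and spheroid viability was recorded.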

[1] = second compound 0.00316 µM, first compound 0.0316 µM
[2] = second compound 0.00316 µM, first compound 0.1 µM
[3] = second compound 0.00316 µM, first compound 0.316 µM
[4] = second compound 0.00316 µM, first compound 1 µM
[5] = second compound 0.00316 µM, first compound 3.16 µM
[6] = second compound 0.00316 µM, first compound 10 µM
[7] = second compound 0.01 µM, first compound 0.0316 µM
[8] = second compound 0.01 µM, first compound 0.1 µM
[9] = second compound 0.01 µM, first compound 0.316 µM
[10] = second compound 0.01 µM, first compound 1 µM
[11] = second compound 0.01 µM, first compound 3.16 µM
[12] = second compound 0.01 µM, first compound 10 µM
[13] = second compound 0.0316 µM, first compound 0.0316 µM
[14] = second compound 0.0316 µM, first compound 0.1 µM
[15] = second compound 0.0316 µM, first compound 0.316 µM
[16] = second compound 0.0316 µM, first compound 1 µM
[17] = second compound 0.0316 µM, first compound 3.16 µM
[18] = second compound 0.0316 µM, first compound 10 µM
[19] = second compound 0.1 µM, first compound 0.0316 µM
[20] = second compound 0.1 µM, first compound 0.1 µM
[21] = second compound 0.1 µM, first compound 0.316 µM
[22] = second compound 0.1 µM, first compound 1 µM
[23] = second compound 0.1 µM, first compound 3.16 µM
[24] = second compound 0.1 µM, first compound 10 µM
[25] = second compound 0.316 µM, first compound 0.0316 µM
[26] = second compound 0.316 µM, first compound 0.1 µM
[27] = second compound 0.316 µM, first compound 0.316 µM
[28] = second compound 0.316 µM, first compound 1 µM
[29] = second compound 0.316 µM, first compound 3.16 µM
[30] = second compound 0.316 µM, first compound 10 µM
[31] = second compound 1 µM, first compound 0.0316 µM
[32] = second compound 1 µM, first compound 0.1 µM
[33] = second compound 1 µM, first compound 0.316 µM
[34] = second compound 1 µM, first compound 1 µM
[35] = second compound 1 µM, first compound 3.16 µM
[36] = second compound 1 µM, first compound 10 µM
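Further: viability read 7 days after compound addition.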

## C#Cc1c(F)ccc2cc(O)cc(-c3ncc4c(N5CC6CCC(C5)N6)nc(OCC56CCCN5CC(F)C6)nc4c3F)c12 (stereo unspecified) + CC(Nc1ccc2c(c1)OCCn1cc(N3C(=O)OCC3C(F)F)nc1-2)C(N)=O
Second compound 0.00316 µM
  IC50: 0.531 µM
Second compound 0.01 µM
  IC50: 0.419 µM
Second compound 0.0316 µM
  IC50: 0.364 µM
Second compound 0.1 µM
  IC50: 0.219 µM
Second compound 0.316 µM
  IC50: 0.179 µM
Second compound 1 µM
  IC50: 0.0558 µM
[1]
  viability, T/C: 76.7%
[2]
  viability, T/C: 76.6%
[3]
  viability, T/C: 49%
[4]
  viability, T/C: 45.8%
[5]
  viability, T/C: 33.9%
[6]
  viability, T/C: 26%
[7]
  viability, T/C: 79%
[8]
  viability, T/C: 65.4%
[9]
  viability, T/C: 52.9%
[10]
  viability, T/C: 41.8%
[11]
  viability, T/C: 31.3%
[12]
  viability, T/C: 24.8%
[13]
  viability, T/C: 83.5%
[14]
  viability, T/C: 65.3%
[15]
  viability, T/C: 53.4%
[16]
  viability, T/C: 36.6%
[17]
  viability, T/C: 29.1%
[18]
  viability, T/C: 18.8%
[19]
  viability, T/C: 82.4%
[20]
  viability, T/C: 63.3%
[21]
  viability, T/C: 43.7%
[22]
  viability, T/C: 29.4%
[23]
  viability, T/C: 22.9%
[24]
  viability, T/C: 17%
[25]
  viability, T/C: 72.3%
[26]
  viability, T/C: 56.4%
[27]
  viability, T/C: 45%
[28]
  viability, T/C: 25.1%
[29]
  viability, T/C: 19.8%
[30]
  viability, T/C: 13.3%
[31]
  viability, T/C: 57.5%
[32]
  viability, T/C: 43.9%
[33]
  viability, T/C: 26%
[34]
  viability, T/C: 23.6%
[35]
  viability, T/C: 14.7%
[36]
  viability, T/C: 10.8%

## CC(Cn1ccc(-c2ccc(C#N)c(Cl)c2)n1)NC(=O)c1cc(C(C)O)[nH]n1 (stereo unspecified) + CC(Nc1ccc2c(c1)OCCn1cc(N3C(=O)OCC3C(F)F)nc1-2)C(N)=O
Second compound 0.00316 µM
  IC50: > 10 µM
Second compound 0.01 µM
  IC50: > 10 µM
Second compound 0.0316 µM
  IC50: > 10 µM
Second compound 0.1 µM
  IC50: > 10 µM
Second compound 0.316 µM
  IC50: > 10 µM
Second compound 1 µM
  IC50: > 10 µM
[1]
  viability, T/C: 88.4%
[2]
  viability, T/C: 101%
[3]
  viability, T/C: 98.5%
[4]
  viability, T/C: 110%
[5]
  viability, T/C: 111%
[6]
  viability, T/C: 101%
[7]
  viability, T/C: 102%
[8]
  viability, T/C: 103%
[9]
  viability, T/C: 106%
[10]
  viability, T/C: 115%
[11]
  viability, T/C: 113%
[12]
  viability, T/C: 110%
[13]
  viability, T/C: 107%
[14]
  viability, T/C: 106%
[15]
  viability, T/C: 101%
[16]
  viability, T/C: 89.8%
[17]
  viability, T/C: 112%
[18]
  viability, T/C: 91.5%
[19]
  viability, T/C: 98.5%
[20]
  viability, T/C: 98.8%
[21]
  viability, T/C: 101%
[22]
  viability, T/C: 94.8%
[23]
  viability, T/C: 103%
[24]
  viability, T/C: 79.8%
[25]
  viability, T/C: 92.4%
[26]
  viability, T/C: 90.5%
[27]
  viability, T/C: 86.8%
[28]
  viability, T/C: 80.2%
[29]
  viability, T/C: 90.4%
[30]
  viability, T/C: 72.8%
[31]
  viability, T/C: 76.4%
[32]
  viability, T/C: 76.8%
[33]
  viability, T/C: 74.2%
[34]
  viability, T/C: 74.8%
[35]
  viability, T/C: 76.1%
[36]
  viability, T/C: 59.2%

## CC1(C)CCC(Nc2ncc(C(F)(F)F)c(-c3c[nH]c4c(P(C)(C)=O)c(C#N)ccc34)n2)CN1 (stereo unspecified) + CC(Nc1ccc2c(c1)OCCn1cc(N3C(=O)OCC3C(F)F)nc1-2)C(N)=O
Second compound 0.00316 µM
  IC50: > 10 µM
Second compound 0.01 µM
  IC50: > 10 µM
Second compound 0.0316 µM
  IC50: 8.54 µM
Second compound 0.1 µM
  IC50: > 10 µM
Second compound 0.316 µM
  IC50: 6.39 µM
Second compound 1 µM
  IC50: 4.8 µM
[1]
  viability, T/C: 99.7%
[2]
  viability, T/C: 88.6%
[3]
  viability, T/C: 85.2%
[4]
  viability, T/C: 71.8%
[5]
  viability, T/C: 78.2%
[6]
  viability, T/C: 49.5%
[7]
  viability, T/C: 102%
[8]
  viability, T/C: 89.2%
[9]
  viability, T/C: 83.5%
[10]
  viability, T/C: 74.6%
[11]
  viability, T/C: 67.7%
[12]
  viability, T/C: 49.8%
[13]
  viability, T/C: 91.2%
[14]
  viability, T/C: 88.2%
[15]
  viability, T/C: 79.6%
[16]
  viability, T/C: 71.5%
[17]
  viability, T/C: 72.8%
[18]
  viability, T/C: 45%
[19]
  viability, T/C: 99.7%
[20]
  viability, T/C: 90.5%
[21]
  viability, T/C: 76.6%
[22]
  viability, T/C: 74%
[23]
  viability, T/C: 73.7%
[24]
  viability, T/C: 46.2%
[25]
  viability, T/C: 87%
[26]
  viability, T/C: 79%
[27]
  viability, T/C: 72.9%
[28]
  viability, T/C: 74.1%
[29]
  viability, T/C: 73.1%
[30]
  viability, T/C: 36%
[31]
  viability, T/C: 81.4%
[32]
  viability, T/C: 75.4%
[33]
  viability, T/C: 64.2%
[34]
  viability, T/C: 65.2%
[35]
  viability, T/C: 64.2%
[36]
  viability, T/C: 34.6%
